Like-named read-outs stand apart in the source and are kept apart here.
Tests used:
[1] = tested on: UGTs in HLMs; assay: Inhibition of glucuronidation reaction by chemical inhibitors in HLMs; assay type: in vitro ADME, human; conditions: vs. control without inhibitor
Protocol: To obtain suitable incubation conditions, we first evaluated the linearity of metabolite formation at different times (10-60 min), the UDPGA concentrations (0.5-5 mM), and the microsome protein concentrations in HLMs (0.2-2 mg/mL). The final incubation medium used in the experiment contained MgCl2 (10 mM), microsomes (0.5 mg/mL), 1,4-lactone monohydrate (5 mM), alamethicin ([…]), UDPGA (1 mM), and different concentrations of tectorigenin or […] (1-300 μM) in Tris-HCl buffer (50 mM, pH 7.4). The mixture was incubated at 37 °C for 30 min; then, the reaction was stopped by adding ice-cold methanol. After the mixtures were centrifuged (17,000 rpm, 10 min), and the supernatant was analyzed by HPLC. Michaelis-Menten parameters (Vmax and Km) were determined on the basis of the nonlinear regression of the plot of the substrate concentration vs. rate of metabolite formation. Several well-characterized UGT substrates were used as “inhibitors” to examine the involvement of UGTs in the glucuronidation of tectorigenin or […]. To reduce nonspecific inhibition, the concentration of each inhibitor was determined according to the available literature, namely, 100 μM silibinin for UGT1A1 [31], 50 μM trifluoperazine for UGT1A4 [32], 100 μM 1-naphthol for UGT1A6/1A9 [18, 33], and 500 μM fluconazole for UGT2B7 [34]. A reaction without inhibitors was carried out in parallel as a control.

[2] = target: T1, UGT1A9 (Homo sapiens, UniProt O60656); assay: Recombinant UGT reaction screening and enzyme kinetics, UGT1A9; assay type: in vitro ADME; conditions: recombinant UGT1A9 screening
T1 construct: purchased BD Biosciences (Woburn, MA, USA)
T1 sequence (O60656 26-530): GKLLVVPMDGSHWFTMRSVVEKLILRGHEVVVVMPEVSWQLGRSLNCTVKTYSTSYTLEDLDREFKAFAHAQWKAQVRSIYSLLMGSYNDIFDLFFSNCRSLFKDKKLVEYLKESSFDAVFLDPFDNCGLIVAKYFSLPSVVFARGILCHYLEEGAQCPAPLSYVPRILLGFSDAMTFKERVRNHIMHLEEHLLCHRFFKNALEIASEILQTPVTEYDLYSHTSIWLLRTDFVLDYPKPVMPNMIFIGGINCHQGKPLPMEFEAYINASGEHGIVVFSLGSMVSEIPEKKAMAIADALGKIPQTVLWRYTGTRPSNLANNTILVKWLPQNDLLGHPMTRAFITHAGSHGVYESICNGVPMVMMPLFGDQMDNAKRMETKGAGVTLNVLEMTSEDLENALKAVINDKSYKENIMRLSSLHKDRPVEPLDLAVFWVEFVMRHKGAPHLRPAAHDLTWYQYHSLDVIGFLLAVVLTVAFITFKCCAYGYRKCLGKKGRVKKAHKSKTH
Protocol: (§1) UGT reaction screening of tectorigenin and irigenin was conducted using nine commercially available human UGTs (UGT1A1/1A3/1A4/1A6/1A9/2B4/2B7/2B15/2B17). Furthermore, we studied the enzymatic kinetic characteristics of tectorigenin and irigenin using UGT1A1 and UGT1A9. Six concentrations of tectorigenin and irigenin (1, 3, 10, 30, 100, and 300 μM) were incubated in triplicate in order to obtain the enzyme kinetic characteristics of tectorigenin and irigenin glucuronide.
(§2) For both HLMs and UGTs, metabolic kinetic analysis was performed by fitting the data to the Michaelis-Menten model. The Km and Vmax of enzymes were calculated as follows:(3) V=Vmax×[S]/Km+[S], where [S] is the substrate concentration. All results were shown as the mean ± standard error (SE). Differences among different groups were compared using one-way analysis of variance. A p-value < 0.05 was considered statistically significant.

[3] = Stability experiment under different storage conditions; assay type: physicochemical; conditions: for Stability in Autosampler for 12 h, RE (%): 4 °C; for Stability in Autosampler for 12 h, RE (%) / Stability in Inactivated Metabolic System for 2 h, RE (%) / Stability −80 °C for 7 Days, RE (%): n = 5; for Stability in Inactivated Metabolic System for 2 h, RE (%): approximately 25 °C
Protocol: In the stability experiment, we evaluated the stability of tectorigenin and irigenin, as well as their metabolites, under different conditions. […] Metabolites (M, M1, and M2) were stable in the inactivated metabolic system for 2 h (held constant at approximately 25 °C) and after storage for 7 days (−80 °C), as well as in the pretreated samples placed in the autosampler for 12 h at 4 °C.

[4] = tested on: pooled human liver microsomes (HLMs); assay: Glucuronidation kinetics of tectorigenin and irigenin in HLMs; assay type: in vitro ADME; conditions: irigenin glucuronidation in HLMs
Protocol: To obtain suitable incubation conditions, we first evaluated the linearity of metabolite formation at different times (10–60 min), the UDPGA concentrations (0.5–5 mM), and the microsome protein concentrations in HLMs (0.2–2 mg/mL). The final incubation medium used in the experiment contained MgCl2 (10 mM), microsomes (0.5 mg/mL), 1,4-lactone monohydrate (5 mM), alamethicin ([…]), UDPGA (1 mM), and different concentrations of tectorigenin or irigenin (1–300 μM) in Tris-HCl buffer (50 mM, pH 7.4). The mixture was incubated at 37 °C for 30 min; then, the reaction was stopped by adding ice-cold methanol. After the mixtures were centrifuged (17,000 rpm, 10 min), and the supernatant was analyzed by HPLC. Michaelis–Menten parameters (Vmax and Km) were determined on the basis of the nonlinear regression of the plot of the substrate concentration vs. rate of metabolite formation.
as §2

[5] = target: T2, UGT1A1 (Homo sapiens, UniProt P22309); assay: Recombinant UGT reaction screening and enzyme kinetics, UGT1A1; assay type: in vitro ADME; conditions: recombinant UGT1A1 screening
T2 construct: purchased BD Biosciences (Woburn, MA, USA)
T2 sequence (P22309 26-533): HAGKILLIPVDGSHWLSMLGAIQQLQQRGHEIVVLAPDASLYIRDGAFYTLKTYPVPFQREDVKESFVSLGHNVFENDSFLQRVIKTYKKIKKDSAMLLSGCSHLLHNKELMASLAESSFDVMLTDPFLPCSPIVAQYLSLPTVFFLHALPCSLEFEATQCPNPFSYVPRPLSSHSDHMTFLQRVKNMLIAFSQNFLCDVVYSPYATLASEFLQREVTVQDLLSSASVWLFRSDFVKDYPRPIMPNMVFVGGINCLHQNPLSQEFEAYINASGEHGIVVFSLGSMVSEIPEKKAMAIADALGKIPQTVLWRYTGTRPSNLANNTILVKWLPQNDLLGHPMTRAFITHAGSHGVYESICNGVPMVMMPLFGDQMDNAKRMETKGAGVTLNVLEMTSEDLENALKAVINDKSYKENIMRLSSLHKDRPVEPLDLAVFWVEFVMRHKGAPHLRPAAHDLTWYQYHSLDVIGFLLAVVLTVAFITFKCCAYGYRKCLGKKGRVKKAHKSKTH
Protocol: as §1, §2

[6] = substrate: COc1cc(-c2coc3cc(O)c(OC)c(O)c3c2=O)cc(O)c1OC; assay: as above; assay type: in vitro ADME, human; conditions: other: irigenin glucuronidation, UGT1A1(M1)
Protocol: as §1, §2

[7] = substrate: COc1c(O)cc2occ(-c3ccc(O)cc3)c(=O)c2c1O; assay: as above; assay type: in vitro ADME, human; conditions: other: tectorigenin glucuronidation (M) by UGT1A1
Protocol: as §1, §2

[8] = substrate: COc1cc(-c2coc3cc(O)c(OC)c(O)c3c2=O)cc(O)c1OC; assay: Recombinant UGT reaction screening and enzyme kinetics, UGT1A9; assay type: in vitro ADME, human; conditions: other: irigenin glucuronidation
Protocol: as §1, §2

[9] = substrate: COc1c(O)cc2occ(-c3ccc(O)cc3)c(=O)c2c1O; assay: as above; assay type: in vitro ADME, human; conditions: other: tectorigenin glucuronidation (M) by UGT1A9
Protocol: as §1, §2

[10] = 100 μM silibinin, 100 μM 1-naphthol

In the case of `Oc1cccc2ccccc12` [1-naphthol], the “Effect of UGT inhibitor on production of M2 from irigenin” value ([1]; 100 μM 1-naphthol) is reported as “inhibited” and the “Effect of UGT inhibitor on tectorigenin glucuronidation” value [1, 10] is reported as “significantly inhibited”.

In the case of `COc1cc(-c2coc3cc(O)c(OC)c(O)c3c2=O)cc(O)c1OC` [Irigenin, 3’,5,7-trihydroxy-4’,5’,6-trimethoxy isoflavone], the “Activity in glucuronidation of irigenin, M2 formation” value [2] is reported as “highest effect”, the “Stability in pretreated samples in the autosampler” value ([3]; autosampler 12 h at 4 °C) is reported as “stable” and the “RE and RSD values in pretreated samples in the autosampler” value ([3]; autosampler 12 h at 4 °C, printed as below ±5%) is reported as less than 5%. For the same molecule, the “Vmax for M1 formation” value ([4]; metabolite M1) was 6.09 ± 0.27 nmol/min/mg, the Km ([4]; metabolite M1, read-out: Km for M1 formation) was 16.9 ± 2.96 µM and the “Vmax for M2 formation” value ([4]; metabolite M2) was 1.16 ± 0.03 nmol/min/mg. The Km ([4]; metabolite M2, read-out: Km for M2 formation) was 27.4 ± 2.46 µM and the “Activity in glucuronidation of irigenin, M1 formation” value [5] was “highest activity”.

For `COc1c(O[C@@H]2O[C@H](C(=O)O)[C@@H](O)[C@H](O)[C@H]2O)cc2occ(-c3ccc(O)cc3)c(=O)c2c1O` [M, tectorigenin-7-O-glucuronide], the “Stability in Autosampler for 12 h, RE (%)” value ([3]; High concentration) was −5.18%, the “Stability in Inactivated Metabolic System for 2 h, RE (%)” value ([3]; High concentration) was 0.59% and the “Stability −80 °C for 7 Days, RE (%)” value ([3]; High concentration) was 4.71%. The “Stability in Autosampler for 12 h, RE (%)” value ([3]; Low concentration) was −2.13%, the “Stability in Inactivated Metabolic System for 2 h, RE (%)” value ([3]; Low concentration) was 0.38% and the “Stability −80 °C for 7 Days, RE (%)” value ([3]; Low concentration) was 2.90%. For the same molecule, the “Stability of metabolites” value ([3]; inactivated metabolic system 2 h (approx. 25 °C), 7 days at −80 °C, autosampler 12 h at 4 °C) was “stable”.

For `COc1cc(C2Oc3cc([C@H]4Oc5cc(O)cc(O)c5C(=O)[C@@H]4O)ccc3OC2CO)ccc1O` (some centres unmarked) [Silibinin], the “Effect of UGT inhibitor on tectorigenin glucuronidation” value [1, 10] was “significantly inhibited” and the “Effect of UGT inhibitor on production of M1 from irigenin” value ([1]; 100 μM silibinin) was “significantly inhibited”.

B1: UGT1A1 (Homo sapiens) (protein)
chain: HAGKILLIPVDGSHWLSMLGAIQQLQQRGHEIVVLAPDASLYIRDGAFYTLKTYPVPFQREDVKESFVSLGHNVFENDSFLQRVIKTYKKIKKDSAMLLSGCSHLLHNKELMASLAESSFDVMLTDPFLPCSPIVAQYLSLPTVFFLHALPCSLEFEATQCPNPFSYVPRPLSSHSDHMTFLQRVKNMLIAFSQNFLCDVVYSPYATLASEFLQREVTVQDLLSSASVWLFRSDFVKDYPRPIMPNMVFVGGINCLHQNPLSQEFEAYINASGEHGIVVFSLGSMVSEIPEKKAMAIADALGKIPQTVLWRYTGTRPSNLANNTILVKWLPQNDLLGHPMTRAFITHAGSHGVYESICNGVPMVMMPLFGDQMDNAKRMETKGAGVTLNVLEMTSEDLENALKAVINDKSYKENIMRLSSLHKDRPVEPLDLAVFWVEFVMRHKGAPHLRPAAHDLTWYQYHSLDVIGFLLAVVLTVAFITFKCCAYGYRKCLGKKGRVKKAHKSKTH
notes: purchased BD Biosciences (Woburn, MA, USA)
In the case of B1, the Km [6] is reported as 20.86 ± 2.04 µM, the Vmax [6] is reported as 0.00522 µmol/min/mg and the Km [7] is reported as 4.064e-05 ± 5.56e-06 M. The Vmax [7] was 0.00901 µmol/min/mg.

B2: UGT1A9 (Homo sapiens) (protein)
chain: GKLLVVPMDGSHWFTMRSVVEKLILRGHEVVVVMPEVSWQLGRSLNCTVKTYSTSYTLEDLDREFKAFAHAQWKAQVRSIYSLLMGSYNDIFDLFFSNCRSLFKDKKLVEYLKESSFDAVFLDPFDNCGLIVAKYFSLPSVVFARGILCHYLEEGAQCPAPLSYVPRILLGFSDAMTFKERVRNHIMHLEEHLLCHRFFKNALEIASEILQTPVTEYDLYSHTSIWLLRTDFVLDYPKPVMPNMIFIGGINCHQGKPLPMEFEAYINASGEHGIVVFSLGSMVSEIPEKKAMAIADALGKIPQTVLWRYTGTRPSNLANNTILVKWLPQNDLLGHPMTRAFITHAGSHGVYESICNGVPMVMMPLFGDQMDNAKRMETKGAGVTLNVLEMTSEDLENALKAVINDKSYKENIMRLSSLHKDRPVEPLDLAVFWVEFVMRHKGAPHLRPAAHDLTWYQYHSLDVIGFLLAVVLTVAFITFKCCAYGYRKCLGKKGRVKKAHKSKTH
notes: as for B1
B2 gave a Km ([8]; UGT1A9(M1)) of 73.88 ± 4.04 µM, a Vmax ([8]; UGT1A9(M1)) of 0.00045 µmol/min/mg and a Km ([8]; UGT1A9(M2)) of 25.04 ± 2.37 µM. The Vmax ([8]; UGT1A9(M2)) was 0.00456 µmol/min/mg, the Km [9] was 1.837e-05 ± 1.16e-06 M and the Vmax [9] was 0.00349 µmol/min/mg.

— publication PMC9268515, “UGT1A1 and UGT1A9 Are Responsible for Phase II Metabolism of Tectorigenin and Irigenin In Vitro” (Molecules, 2022)
